Assay results from patent publication US9695463B2, “DNA 5-methyl cytosine demethylation activity of vertebrate DNA methyltransferases” (Academia Sinica, priority 2012, dated 2017).

Legend:
[1] = biological target: T1, recombinant DNMT3B (Mus musculus, UniProt O88509); assay: Effect of Ca2+ and DTT on the C to 5-mC methylation reaction of recombinant DNMT3B (hydrolysis-TLC assay); format: biochemical; conditions: 40 nM recombinant DNMT3B, unmethylated pMR1-8, 160 μM SAM, 1 mM CaCl2 or 5 mM DTT, 37°C, 4 h
T1 construct: purchased BPS Bioscience; host or cells: recombinant baculovirus-infected Sf9 insect cells
Experimental: (§1) FIGS. 3A-B show the effects of a reducing condition and SAM on the DNA demethylation and methylation activities of DNMT3B. […] After incubation at 37° C. for 4 h, the DNA products were analyzed by the hydrolysis-TLC assay. The results are quantitatively presented in the histogram. […] After incubation at 37° C. for 4 h, the extents of C methylation of the DNAs from the different reactions were determined by hydrolysis-TLC assay and quantitatively compared in the histogram. Error bars indicate S.D.
Methylation in vitro of unmodified pMR1-8 plasmid DNA by the DNMTs were carried out and analyzed by the hydrolysis-TLC assay. When needed, 1 mM CaCl2 or 5 mM DTT was also included in the reaction mixture.

[2] = system: DNA demethylation activity of porcine sperm nuclear extract; assay: In vitro DNA demethylation by porcine sperm nuclear extract (restriction digestion-PCR assay); format: biochemical; conditions: for effect on the in vitro DNA demethylation activity of the sperm nuclear extract: 10 mM CaCl2, increasing concentrations of inhibitor (APE-i to 1 mM, 3-AB to 50 mM, THU to 1 mM)
Experimental: The nuclear extracts were prepared from the porcine sperms and 293T cells, respectively, by a modified method. Briefly, the porcine semen was washed three times by PBS buffer and the sperm pellet isolated with FICOLL®. The pellet was resuspended in a hypotonic buffer (10 mM Tris-HCl, pH7.4, 10 mM NaCl, 10 mM EDTA and EDTA-free protease inhibitors) on ice for 15 minutes. The resuspended sperms were passed through a G21 needle 10 times and then centrifuged at 13,200 rpm at 4° C. for 10 min. The supernatant was removed and the pellet of the nuclei was resuspended in a resuspension buffer (10 mM Tris-HCl, pH7.4, 10 mM NaCl, 1.5 mM, MgCl2 and EDTA-free protease inhibitors), and an equal volume of 1M NaCl was added for 30 min incubation on ice.

[3] = biological target: T2, recombinant mouse DNMT3B (Mus musculus, UniProt O88509); assay: Effect of Ca2+, DTT, SAM and H2O2 on the DNA demethylation activity of recombinant DNMT3B (hydrolysis-TLC assay); format: biochemical
T2 construct: purchased BPS Bioscience; host or cells: recombinant baculovirus-infected Sf9 insect cells
Experimental: M, mock control without incubation.
as §1
Rx, reactions. […] M, mock control without incubation.

[4] = system: 5-mC-containing double-stranded DNA substrate; assay: 5-mC to C conversion by 293T nuclear extracts with exogenously expressed mouse DNMTs (hydrolysis-TLC assay); format: biochemical; conditions: 293T nuclear extract with exogenously expressed mouse enzyme, buffer B, 10 mM Ca2+
[5] = system: 5-mC-containing DNA substrate; assay: 5-mC to C conversion by recombinant DNMTs (hydrolysis-TLC assay); conditions: 40 nM recombinant DNMT3B, 1 mM CaCl2, 37°C, 2 h (reaction 1)

## O[C@H](CS)[C@H](O)CS (racemic) [DTT, dithiothreitol]
[1]
  effect on the 5-C methylation reaction of DNMTs (in words): nor was it affected

## NC(=O)c1cccc(N)c1 [3-aminobenzamide]
[2]
  effect on the in vitro DNA demethylation activity of the sperm nuclear extract: little effect

## O=C(O)c1cc2cccc([N+](=O)[O-])c2[nH]1 [CRT0044876]
[2]
  effect on the in vitro DNA demethylation activity of the sperm nuclear extract: little effect

## [Ca+2].[Cl-].[Cl-] [Ca^2+, CaCl2]
[2]; 1-10 mM Ca2+, fully methylated pMR1-8 plasmid, 37°C, 2 h
  reduction of the extent of DNA methylation: 20-50%
[1]
  effect on the 5-C methylation reaction of DNMTs (in words): did not require

## OO [H2O2]
[3]; 1 mM H2O2 added after reaction 2, another 2 h (reaction 3)
  effect on the enzyme activity of DNMT3B after SAM (in words): led to the switch of the enzyme activity of DNMT3B from methylation to demethylation again

## C[S+](CC[C@H](N)C(=O)O)C[C@H]1O[C@@H](n2cnc3c(N)ncnc32)[C@H](O)[C@@H]1O (some centres unmarked) [SAM, S-adenosylmethionine]
[3]; 160 μM SAM added after reaction 1, continued 1 h incubation (reaction 2)
  C converted back to 5-mC: more than 60%

## O=C1NC(O)CCN1[C@@H]1O[C@H](CO)[C@@H](O)[C@H]1O (some centres unmarked) [tetrahydrouridine]
[2]
  effect on the in vitro DNA demethylation activity of the sperm nuclear extract: little effect

## DNMT1: mouse DNA methyltransferase 1 exogenously expressed in 293T nuclear extract (SEQ ID NO: 5)
[4]
  5-mC residues on the DNA substrate from which the 5-methyl group was removed: approximately 30%

## DNMT3B: mouse DNA methyltransferase 3B, expressed in 293T nuclear extract or recombinant from BPS Bioscience (SEQ ID NO: 9)
[5]
  5-mC on the DNA substrate demethylated at the end of the first reaction: approximately 60%
[4]
  5-mC residues on the DNA substrate from which the 5-methyl group was removed: approximately 30%
